The values below come from article PMC7822874, “Chemoprotective antimalarials identified through quantitative high-throughput screening of Plasmodium blood and liver stage parasites” (Scientific Reports, 2021).

In experiment [1] the test system is luciferase-expressing P. berghei liver stage parasites in HepG2 cells. Description: Inhibition of liver-stage development assay (ILSDA), Method 2 (WRAIR, 96-well). In kind it is cell-based, Plasmodium berghei. Particulars: for Max Resp (signal direction of the dose response) / AC50 / Log AC50 (M): Method 2; for Max Resp (signal direction of the dose response): Decrease = decreasing P. berghei viability with dose, Increase = increasing signal, Inactive = no dose response; for AC50: Hill fit, 50% of maximum activity response, read-out: AC50; for Log AC50 (M): log10 of molar AC50 from Hill fit.

Experiment [2] deals with Plasmodium falciparum Dd2 asexual blood stage parasites. In words: microbe, parasite or virus in culture. More on the design: species or system Plasmodium falciparum Dd2 in human erythrocytes; single determination (one 11-point concentration-response curve). The settings on record: Plasmodium falciparum, DD2, Erythrocyte, 72 h; read-out: AC50.
Experiment [3] deals with T1, Plasmodium falciparum Dd2-attB (parental line), asexual blood stages.
T1 construct: Dd2-attB, the isogenic parental line
In words: microbe, parasite or virus in culture. More on the design: replicate k of 3 (each line is one of three independent assays; the three lines of one compound and parasite line follow each other). Particulars: n = 1; for Individual replicates / Log AC50 (M): 72 h; for AC50: Plasmodium falciparum, DD2, 72 h, read-out: Individual replicates / Log AC50 (converted); call rule not given here. In outline:
(§1)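 Statistics: two-sided Student's t-test between parental and transgenic values, from three independent assays. The transgene encodes a fumarate-dependent DHODH from yeast, independent of the parasite mETC.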

Experiment [4] concerns P. berghei-ANKA-GFP-LucCON liver stage parasites in HepG2-A16-CD81EGFP cells. Description: P. berghei liver stage Pb-Luc assay, Method 1 (UCSD, 1536-well). In kind it is cell-based, Plasmodium berghei. Particulars: Method 1; for Max Resp (signal direction of the dose response): Decrease = decreasing P. berghei viability with dose, Increase = increasing signal, Inactive = no dose response.

In experiment [5] the test system is T2, Plasmodium falciparum Dd2-attB-ScDHODH (transgenic line expressing yeast DHODH), asexual blood stages.
T2 construct: Dd2-attB-ScDHODH, the transgenic line that expresses yeast DHODH
Description: organism not typed. Also on record: replicate k of 3 (each line is one of three independent assays; the three lines of one compound and parasite line follow each other). Particulars: 72 h, n = 1; for AC50: read-out: Individual replicates / Log AC50 (converted). In a few lines:
as §1

The mark [6] stands for this setting: Hill fit, 50% of maximum activity response, read-out: AC50.
Where [7] appears, read: log10 of molar AC50 from Hill fit.
[8] abbreviates: Plasmodium berghei, Hill fit, 50% of maximum activity response, read-out: AC50.
[9] abbreviates: Plasmodium berghei, log10 of molar AC50 from Hill fit, read-out: Log AC50 (converted).

“And” between values parts separate entries of the source, which are not always exact repeats. Identical values can stand only once. Like-named read-outs stand apart in the source and are kept apart here.

Consider `Cc1ccc(NC2=C(c3ccc(C(F)(F)F)cc3)C(=O)c3ccccc32)cc1C` [NCGC00107300-01], for which the “Max Resp (signal direction of the dose response)” value (from here on “Max Resp”) in experiment [1] and in experiment [4] was “Decrease” in each case. Moreover, the AC50 in experiment [1] is 398 nM; in experiment [2], 2110 nM; in experiment [3], 1590 nM; in experiment [4] (setting [6]), 794 nM; in experiment [4] (setting [8]) it was 447 nM; in experiment [4] (setting [9]) it was 447 nM. Further, the AC50 in experiment [5] is 3.99 µM. Further, the “Log AC50 (M)” value is listed as -6.400 M in experiment [1] and -6.100 M in experiment [4] (setting [7]). In addition, the “Individual replicates / Log AC50 (M)” value is -5.7486 Log AC50 (M) and -5.5986 Log AC50 (M) in experiment [3]; -5.4986 Log AC50 (M) and -5.2486 Log AC50 (M) in experiment [5].

Regarding `COc1ccc(NC2=C(c3ccc(C(F)(F)F)cc3)C(=O)c3ccccc32)cc1` [NCGC00107310-01], the “Max Resp” value in experiment [1] and in experiment [4] was “Decrease” throughout. Also, the AC50 is 141 nM in experiment [1], 2110 nM in experiment [2], 1780 nM in experiment [4] (setting [8]) and 1780 nM in experiment [4] (setting [9]). For the same compound, the “Log AC50 (M)” value in experiment [1] is -6.850 M. Besides, the “Individual replicates / Log AC50 (M)” value in experiment [3] is -6.3486 Log AC50 (M) and -6.1486 Log AC50 (M) and -6.1986 Log AC50 (M); in experiment [5], -5.7986 Log AC50 (M) and -5.8986 Log AC50 (M) (2×).

Consider `Cc1ccc(NC2=C(c3ccc(C(F)(F)F)cc3)C(=O)c3ccccc32)cc1F` [NCGC00107266-01], for which the “Max Resp” value in experiment [1] and in experiment [4] was “Decrease” throughout. For the same compound, the AC50 in experiment [1] was 79 nM; in experiment [2] it was 1880 nM; in experiment [3], 399 nM; in experiment [4] (setting [6]), 1410 nM; in experiment [4] (setting [8]), 1260 nM; in experiment [4] (setting [9]), 1260 nM. The “Log AC50 (M)” value in experiment [1] is recorded as -7.100 M; in experiment [4] (setting [7]), -5.850 M. In addition, the “Individual replicates / Log AC50 (M)” value in experiment [3] was -6.2486 Log AC50 (M) and -6.2986 Log AC50 (M); in experiment [5], -5.4986 Log AC50 (M) and -5.1986 Log AC50 (M) and -5.3986 Log AC50 (M).

On to `Cc1ccc(C)c(NC2=C(c3ccc(C(F)(F)F)cc3)C(=O)c3ccccc32)c1` [NCGC00107302-01], for which the “Max Resp” value in experiment [1] was “Decrease”. Moreover, the AC50 in experiment [1] is 501 nM; in experiment [2], 4730 nM; in experiment [3] it was 1130 nM; in experiment [4] (setting [8]), 1580 nM; in experiment [4] (setting [9]) it was 1580 nM; in experiment [5] it was 7.97 µM. In addition, the “Log AC50 (M)” value in experiment [1] is -6.300 M. The “Individual replicates / Log AC50 (M)” value is -5.6986 Log AC50 (M) and -5.7486 Log AC50 (M) in experiment [3]; -4.9986 Log AC50 (M) and -5.0486 Log AC50 (M) in experiment [5].

For `CCCN1C(CC(C)C)=N[S+](=O)([O-])c2cc(NC(=O)c3ccccc3Cl)ccc21` [NCGC00473218-01], the “Activity direction (Decrease / Inactive)” value in experiment [1] (P. berghei liver stage, Method 2, dose response) is given as “Inactive”. Moreover, in experiment [3], the “Individual replicates / Log AC50 (M)” value is -5.5486 Log AC50 (M) and -5.3986 Log AC50 (M) and -5.1986 Log AC50 (M). Further, in experiment [5], the “Individual replicates / Log AC50 (M)” value is listed as -5.0486 Log AC50 (M) and the AC50 is 7.97 µM.
